Test results reported in patent US8178678B2, “Bis-quaternary ammonium salts and methods for modulating neuronal nicotinic acetylcholine receptors” (University of Kentucky Research Foundation, priority 2006, dated 2012).

Tests used:
[1] = target: T1, Rat Striatal Nicotinic Receptors ([^3H]NIC binding sites; α4β2) (Rattus norvegicus, UniProt P09483+P12390); test: Inhibition of [^3H]NIC binding; details: 1 h; 100 nM analog; 3 nM [^3H]NIC; nonspecific 10 μM cytisine; rat brain membranes
T1 construct: Whole brain, excluding cortex and cerebellum, was homogenized in 20 vol of ice-cold buffer; from tissue; host or cells: rat brain membranes (whole brain excluding cortex and cerebellum)
T1 sequence (P09483 31-630): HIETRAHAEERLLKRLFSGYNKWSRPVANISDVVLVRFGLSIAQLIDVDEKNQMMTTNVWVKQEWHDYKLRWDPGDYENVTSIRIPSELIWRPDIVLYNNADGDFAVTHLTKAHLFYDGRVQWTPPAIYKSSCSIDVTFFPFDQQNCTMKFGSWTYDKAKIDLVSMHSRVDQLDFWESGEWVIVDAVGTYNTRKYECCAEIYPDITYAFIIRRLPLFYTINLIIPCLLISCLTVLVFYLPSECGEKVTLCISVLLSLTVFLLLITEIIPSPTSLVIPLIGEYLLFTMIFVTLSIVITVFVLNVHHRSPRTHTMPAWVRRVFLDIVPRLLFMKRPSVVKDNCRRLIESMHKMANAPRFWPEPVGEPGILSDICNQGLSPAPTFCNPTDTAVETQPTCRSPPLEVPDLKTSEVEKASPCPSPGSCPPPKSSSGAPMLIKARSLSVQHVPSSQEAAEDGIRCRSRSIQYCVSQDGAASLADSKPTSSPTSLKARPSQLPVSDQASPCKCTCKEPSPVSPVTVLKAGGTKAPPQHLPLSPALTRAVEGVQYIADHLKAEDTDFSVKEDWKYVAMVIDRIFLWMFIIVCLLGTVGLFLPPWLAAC
T1 sequence (P12390 25-500): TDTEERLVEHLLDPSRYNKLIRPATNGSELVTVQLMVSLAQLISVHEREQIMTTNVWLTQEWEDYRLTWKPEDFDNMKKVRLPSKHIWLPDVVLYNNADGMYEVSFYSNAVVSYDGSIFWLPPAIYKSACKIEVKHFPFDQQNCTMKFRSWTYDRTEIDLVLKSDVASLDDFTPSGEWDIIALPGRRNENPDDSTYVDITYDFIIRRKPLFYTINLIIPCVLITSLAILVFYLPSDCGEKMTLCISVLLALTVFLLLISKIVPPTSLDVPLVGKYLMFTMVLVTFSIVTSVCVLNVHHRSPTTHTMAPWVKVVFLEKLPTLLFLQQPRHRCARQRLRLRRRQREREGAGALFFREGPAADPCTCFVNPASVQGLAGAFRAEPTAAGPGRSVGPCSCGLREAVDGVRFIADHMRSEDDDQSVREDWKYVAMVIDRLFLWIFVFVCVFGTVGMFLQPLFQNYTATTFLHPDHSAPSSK
Procedure: (§1) Homogenate was centrifuged (25,000 g, 15 min, 4° C). Pellets were resuspended in 20 vol buffer and incubated at 37° C., for 10 min, cooled to 4° C. and centrifuged (25,000 g, 15 min, 4° C.). Pellets were resuspended and centrifuged using the same conditions. […] Upon use, final pellets were resuspended in 20 vol assay buffer. Samples (250 μl) contained 100-140 μg of membrane protein, 3 nM [^3H]-S-nicotine or 3 nM [^3H]-methyllycaconitine (MLA), and bis-quaternary ammonium analog (100 nM) in assay buffer containing 50 mM Tris. Control was in the absence of analog. In [^3H]-S-nicotine and [^3H]-methyllycaconitine binding assays, nonspecific binding was determined in the presence of 10 μM cytisine and 10 μM S-nicotine, respectively. Incubations proceeded for 60 min at room temperature using 96-well plates and were terminated by harvesting on Unifilter-96 GF/B filter plates presoaked in 0.5% polyethylenimine, using a Packard FilterMate harvester. After washing 5 times with 350 μl ice-cold assay buffer, filter plates were dried (60 min, 4° C.), bottom-sealed, and filled with Packard's MicroScint 20 cocktail (40 μl/well). After 60 min, filter plates were top-sealed, and radioactivity determined using a Packard TopCount. Protein concentrations were determined using the Bradford dye-binding procedure bovine serum albumin as the standard.
Specific binding in the [^3H]NIC binding assay is calculated as the difference between the total binding of 3 nM [^3H]NIC and nonspecific binding in the presence of 10 μM cold cytisine. […] Analog-induced inhibition of S-nicotine-evoked [^3H]DA release is calculated as a percent of that in the absence of the bis-quaternary ammonium analog.

[2] = target: T2, Rat Striatal Nicotinic Receptors ([^3H]MLA binding sites; α7) (Rattus norvegicus, UniProt Q05941); test: Inhibition of [^3H]MLA (methyllycaconitine) binding; details: 100 nM analog; [^3H]MLA; nonspecific S-nicotine; rat brain membranes; read-out: [^3H]MLA binding, % inhibition
T2 construct: Whole brain, excluding cortex and cerebellum, was homogenized in 20 vol of ice-cold buffer; from tissue; host or cells: rat brain membranes (whole brain excluding cortex and cerebellum)
T2 sequence (Q05941 23-502): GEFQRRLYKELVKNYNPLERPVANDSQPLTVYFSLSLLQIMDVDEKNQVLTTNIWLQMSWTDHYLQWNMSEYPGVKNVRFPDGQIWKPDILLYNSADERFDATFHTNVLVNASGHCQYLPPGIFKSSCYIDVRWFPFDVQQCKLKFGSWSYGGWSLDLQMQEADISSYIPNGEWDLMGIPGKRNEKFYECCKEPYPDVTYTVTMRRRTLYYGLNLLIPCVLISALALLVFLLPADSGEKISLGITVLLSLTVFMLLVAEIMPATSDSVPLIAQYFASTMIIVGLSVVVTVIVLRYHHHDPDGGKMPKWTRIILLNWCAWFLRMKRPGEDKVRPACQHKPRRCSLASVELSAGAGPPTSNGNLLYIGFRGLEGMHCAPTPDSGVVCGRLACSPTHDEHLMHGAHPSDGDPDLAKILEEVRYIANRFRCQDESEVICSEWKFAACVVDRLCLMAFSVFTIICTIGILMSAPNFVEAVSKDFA
Procedure: as §1, with “standard. […]” for “standard.”

[3] = tested on: nicotinic receptors mediating S-nicotine-evoked [^3H]DA release in rat striatal slices; test: Inhibition of S-nicotine-evoked [^3H]dopamine release from superfused rat striatal slices; type: cell-based; details: 1 h; 100 nM analog superfused 60 min before NIC 10 μM; rat striatal slices; read-out: [^3H]DA release, % inhibition of S-nicotine-evoked release
Procedure: Rat striatal slices (500 μm thickness, 6-8 mg wet weight) were incubated for 30 minutes in Krebs buffer (118 mM NaCl, 4.7 mM KCl, 1.2 mM MgCl2, 1.0 mM NaH2PO4, 1.3 mM CaCl2, 11.1 mM glucose, 25 mM NaHCO3, 0.11 mM L-ascorbic acid, and 0.004 mM disodium EDTA; pH 7.4, and saturated with 95% O2/5% CO2) in a metabolic shaker at 34° C. Slices were rinsed with 15 mL of fresh buffer and incubated for an additional 30 minutes in fresh buffer containing 0.1 μM [^3H]dopamine (DA; 6 slices/3 mL). Subsequently, slices were rinsed with 15 mL of fresh buffer and transferred to a glass superfusion chamber. Slices were superfused (1.0 mL/min) for 60 minutes with Krebs buffer containing nomifensine (10 μM) and pargyline (10 μM) and maintained at 34° C., pH 7.4, with continual aeration (95% O2/5% CO2). Two five minute samples (5 mL each) were collected to determine basal outflow of [^3H]DA. The bis-quaternary ammonium analogs were added to the superfusion buffer after the collection of the second sample and remained in the buffer until 12 consecutive five minute samples were collected. Subsequently, S-nicotine (NIC; 10 μM) was added to the buffer and an additional 12 consecutive five minute samples were collected. At the end of the experiment, each slice was solubilized and the [^3H] content of the tissue determined.
Radioactivity in the superfusate and tissue samples was determined by liquid scintillation spectroscopy. Fractional release for tritium collected in each sample was divided by the total tritium present in the tissue at the time of sample collection and was expressed as a percentage of total tritium. Basal [^3H]outflow was calculated from the average of the tritium collected in the two five minute samples just before addition of the quaternary analog. The sum of the increase in collected tritium resulting from either exposure to the test compound or exposure to S-nicotine in the absence and presence of the test compound equaled total [^3H]overflow. [^3H]Overflow was calculated by subtracting the [^3H]outflow during an equivalent period of prestimulation from the values in samples collected during and after drug exposure. Inasmuch as the radiolabelled compounds were not separated and identified, the tritium collected in superfusate is referred to as either [3H]outflow or [^3H]overflow, rather than as [^3H]DA. [^3H]Overflow primarily represents [^3H]DA in the presence of nomifensine and pargyline in the superfusion buffer.
The bis-quaternary ammonium analogs were also evaluated for their ability to inhibit NIC evoked [^3H]DA release. In these experiments, the striatal slices were superfused for 60 minutes with 100 nM concentration of the quaternary analogs prior to NIC (10 μM) exposure. Antagonist activity was evaluated by comparing the NIC-evoked [^3 H]overflow in the absence and presence of the analogs. The relative order of potency of the quaternary analogs for inhibition of NIC-evoked [^3H]DA release from rat striatal slices is illustrated in Table 1.
^aData are % inhibition at 100 nM concentration of the bis-quaternary ammonium analogs for at least 1-3 independent experiments; with the exception of when a Ki value in μM is provided, in which case a full concentration effect was evaluated. Specific binding in the [^3H]NIC binding assay is calculated as the difference between the total binding of 3 nM [^3H]NIC and nonspecific binding in the presence of 10 μM cold cytisine. Specific binding for the [^3H]MLA binding assay is calculated as the difference between the total binding of […] [^3H]MLA to the receptors alone and its nonspecific binding in the presence of […] cold S-nicotine. Analog-induced inhibition of S-nicotine-evoked [^3H]DA release is calculated as a percent of that in the absence of the bis-quaternary ammonium analog.

Row | SMILES | inhibition at 0.1 µM [1] | inhibition at 0.1 µM [2] | inhibition at 0.1 µM [3]
1 | C(#Cc1ccccc1C#CCCC[n+]1cccc2ccccc21)CCC[n+]1cccc2ccccc21 [Example 29, 1,2-bis-(5-quinolinium-pent-1-ynyl)-benzene dibromide] | 0% | 2.3% | 20%
2 | Cc1cc[n+](CCCCCc2cccc(CCCCC[n+]3ccc(C)cc3C)c2)c(C)c1 [Example 65, 1,3-bis-[5-(2,4-dimethyl-pyridinium)-pentyl]-benzene dibromide] | 0.5% | 5.6% | 26%
3 | Cc1cc[n+](CCCCCc2cccc(CCCCC[n+]3ccc(C)c(C)c3)c2)cc1C [Example 66, 1,3-bis-[5-(3,4dimethyl-pyridinium)-pentyl]-benzene dibromide] | 10.5% | 7% | 35%
4 | Cc1cc(C)c[n+](CCCC#Cc2ccccc2C#CCCC[n+]2cc(C)cc(C)c2)c1 [Example 28, 1,2-bis-[5-(3,5-dimethyl-pyridinium)-pent-1-ynyl]-benzene dibromide] | 1.3% | 5% | 19%
5 | C(#Cc1cccc(C#CCCC[n+]2cccc3ccccc32)c1)CCC[n+]1cccc2ccccc21 [Example 54, 1,3-bis-(5-quinolinium-pent-1-ynyl)-benzene dibromide] | 16% | 3.9% | 17%
6 | Cc1cc(C)c[n+](CCCCCc2ccccc2CCCCC[n+]2cc(C)cc(C)c2)c1 [Example 39, 1,2-bis-[5-(3,5-dimethyl-pyridinium)-pentyl]-benzene dibromide] | 0.7% | 0% | 47%
7 | Cc1cc[n+](CCC#Cc2ccc(C#CCC[n+]3ccc(C)c(C)c3)cc2)cc1C [Example 100, N,N′-[(1,4-phenylene)-bis-(4-butynyl)]-bis-(3,4-dimethyl-pyridinium)dibromide] | 3% | 0% | 31%
8 | C(#Cc1cccc(C#CCCC[n+]2ccc3ccccc3c2)c1)CCC[n+]1ccc2ccccc2c1 [Example 55, 1,3-bis-(5-isoquinolinium-pent-1-ynyl)-benzene dibromide] | 7.4% | 5.6% | 31%
9 | C(#Cc1cccc(C#CCCC[n+]2cccc(-c3ccccc3)c2)c1)CCC[n+]1cccc(-c2ccccc2)c1 [Example 58, 1,3-bis-[5-(3-phenyl-pyridinium)-pent-1-ynyl]-benzene dibromide] | 3.4% | 11% | 8%
10 | Cc1cc[n+](CCCC#Cc2ccccc2C#CCCC[n+]2ccc(C)cc2C)c(C)c1 [Example 26, 1,2-bis-[5-(2,4-dimethyl-pyridinium)-pent-1-ynyl]-benzene dibromide] | 0% | 0% | 18%
11 | Cc1cc(C)c[n+](CCCCCc2cccc(CCCCC[n+]3cc(C)cc(C)c3)c2)c1 [Example 67, 1,3-bis-[5-(3,5-dimethyl-pyridinium)-pentyl]-benzene dibromide] | 4.8% | 1.4% | 34%
12 | Cc1ccc[n+](CCCc2ccc(-c3ccc(CCC[n+]4cccc(C)c4)cc3)cc2)c1 [Example 78, N,N′-[(1,1′-biphenyl)-4,4′-di-(3-propanyl)]-bis-(3-methylpyridinium)dibromide] | 0% | 5.5% | 44%
13 | Cc1cccc[n+]1CCCCCc1ccccc1CCCCC[n+]1ccccc1C [Example 34, 1,2-bis-[5-(2-methyl-pyridinium)-pentyl]-benzene dibromide] | 0% | 7.6% | 8%
14 | C(#Cc1ccccc1C#CCCC[n+]1ccc2ccccc2c1)CCC[n+]1ccc2ccccc2c1 [Example 30, 1,2-bis-(5-isoquinolinium-pent-1-ynyl)-benzene dibromide] | 1.6% | 1.1% | 24%
15 | Cc1cccc[n+]1CCCC#Cc1cccc(C#CCCC[n+]2ccccc2C)c1 [Example 48, 1,3-bis-[5-(2-methyl-pyridinium)-pent-1-ynyl]-benzene dibromide] | 1.9% | 0% | 35%
16 | CN1CCC[C@@H]1c1ccc[n+](CCCC#Cc2ccccc2C#CCCC[n+]2cccc([C@@H]3CCCN3C)c2)c1 [Example 31, 1,2-bis-[5-(2′-S-nicotinium-pent-1-ynyl)]benzene dibromide] | 72% | 9.2% | 35%
17 | Cc1ccc[n+](CC#Cc2ccc(-c3ccc(C#CC[n+]4cccc(C)c4)cc3)cc2)c1 [Example 102, N,N′-[(1,1′-biphenyl)-4,4′-di-(1-propyn-3-yl)]-bis-(3-methylpyridinium)dibromide] | 9.4% | 12% | –
18 | Cc1cc(C)c[n+](CCCCc2ccc(CCCC[n+]3cc(C)cc(C)c3)cc2)c1 [Example 20, N,N′-[1,4-phenylenedi-(4-butanyl)]-bis-(3,5-dimethylpyridinium)dibromide] | 1% | 0% | –
